Experimental data from patent US8926966B1 (Regents of the University of California, priority 1990, dated 2015).

Experiments:
[1] = test system: IDDM associated autoantibodies in sera; experiment: ELISA of sera on plate-bound human GAD65 peptides; assay type: binding; details: for number of IDDM (at risk, pre-IDDM, at onset) patients positive (X) for the peptide (unlabelled sum line): IDDM sera of Table 11
Method: Patient sera and most control sera were those used in a previous study (Kaufman, et al., J. Clin. Investigation, supra) All samples were coded and tested in a blind manner. Peptides were synthesized using an automatic instrument (Applied Biosystems, Foster City, Calif.) and standard conditions. Peptides were dissolved in 60 mM sodium bicarbonate buffer (pH 9.6) at 20 ug/ml and 100 ul of each was added to duplicated wells of a 96 well Nunc-Immuno Plate. Peptides were allowed to bind at 4° C. overnight. The plates were then washed three times with PBS+0.1% Tween 20 (wash buffer), after which the plates were pre-absorbed with 3% BSA in sodium bicarbonate buffer for 0.5 hours at 37° C., or at room temperature overnight. The plates were then washed 5 times with the above wash buffer. 100 ul of serum at a 1/300 dilution in PBS+0.1% Tween 20 and 1% BSA was added to each well and antibodies were allowed to bind for 1 hour at 37° C. The plates were washed 5 times with wash buffer. 100 ul of a 1/600 dilution of HRP-goat anti-human IgG (BRL, Gaithersberg, Md.) was added to each well and allowed to bind for 1 hour at 37° C. The plates were then washed 7 times and 100 ul of substrate buffer was added to each well for 30 minutes at room temperature. The color development was measured at 410 nm using an ELISA plate reader (ICN, Biomedicals, Costa Mesa, Calif.). Positive sera were defined as: OD410 of the sample/negative control ≧3.0.

[2] = test system: autoantibodies to GAD in patient sera; experiment: Immunoprecipitation of ^35S-GAD65 / ^35S-GAD67 by sera drawn prior to IDDM onset; assay type: binding, human; set-up: key to band intensity of immunoprecipitated ^35S-GAD: 1 = lowest; 2 = medium; 3 = highest band intensities
Method: Islet cells were extracted as previously described by Atkinson, et al. (Lancet, 335:1357-1360, 1990) with the following modifications. […] The protein A Sepharose CL-4B was then boiled in Laemmli sample buffer (Laemmli, Nature, 227:680-685, 1970), and the samples were subjected to SDS-PAGE and fluororadiography (Kodak, X-omat AR5) using Enhance (New England Nuclear). Alternatively, the autoradiographs were analyzed by a BETAGEN (Boston, Mass.) analyzer. Both 64KA positive and negative sera were used in each assay, to serve as interassay controls. All fluororadiographs were analyzed and rated as positive or negative after comparison with the known interassay controls. […] A similar rating procedure was employed for the intensity of bands corresponding to immunoprecipitated ^35S-GAD65 and ^35S-GAD67.
Rat GAD65 and GAD67 cDNAs were subcloned into a bacterial expression system as previously described. Labeling of ^35S-GADs was completed by pulsing IPTG induced bacterium (growing in Minimal Media) for 15 minutes with TRAN ^35S-label (ICN). Cultures were then spun down and resuspended and sonicated in 1 ml of homogenizing buffer (1 mM phenylmethylsulfonyl fluoride (PMSF), 1 mM 2-aminoethylisothiouronium Bromide (AET) and 60 mM potassium phosphate, pH 7.1). After sonication, cell debris was removed by centrifugation and protein concentration was measured (Bradford, Anal. Biochem., 72:248, […]) in the supernatant (supernatant was stored in aliquots at −70° C.).

[3] = IDDM At Risk serum 052, 1/300 dilution
[4] = IDDM At Onset serum 048, 1/300 dilution
[5] = IDDM At Risk serum L.I., 1/300 dilution
[6] = Pre-IDDM serum P.T. (2), 1/300 dilution
[7] = IDDM At Onset serum 705, 1/300 dilution
[8] = Pre-IDDM serum J.B. (2), 1/300 dilution
[9] = IDDM At Onset serum S.H., 1/300 dilution
[10] = Pre-IDDM serum P.T. (1), 1/300 dilution

AFTSEHSHFSLKKGAAALGI [Peptide 19]
immunoreactivity of serum with GAD65 peptide [1, 3]: X (X = positive for immunoreactivity as defined by 00/background^3.0) | number of IDDM (at risk, pre-IDDM, at onset) patients positive (X) for the peptide (unlabelled sum line) [1]: 1

EYLYNIIKNREGYEMVFDGK [Peptide 32]
immunoreactivity of serum with GAD65 peptide [1, 4]: X (X = positive for immunoreactivity as defined by 00/background^3.0) | immunoreactivity of serum with GAD65 peptide ([1]; IDDM At Onset serum 291, 1/300 dilution): b (b = borderline response (00/background ?2.5-2.9).) | immunoreactivity of serum with GAD65 peptide [1, 5]: b (b = borderline response (00/background ?2.5-2.9).) | number of IDDM (at risk, pre-IDDM, at onset) patients positive (X) for the peptide (unlabelled sum line) [1]: 1 | immunoreactivity of serum with GAD65 peptide [1, 6]: b (b = borderline response (00/background ?2.5-2.9).) | immunoreactivity of serum with GAD65 peptide ([1]; control serum 4380, 1/300 dilution): b (b = borderline response (00/background ?2.5-2.9).)

LAFLQDVMNILLQYVVKSFDRS [Peptide 8]
immunoreactivity of serum with GAD65 peptide [1, 7]: X (X = positive for immunoreactivity as defined by 00/background^3.0) | immunoreactivity of serum with GAD65 peptide [1, 5]: X (X = positive for immunoreactivity as defined by 00/background^3.0) | number of IDDM (at risk, pre-IDDM, at onset) patients positive (X) for the peptide (unlabelled sum line) [1]: 2 | immunoreactivity of serum with GAD65 peptide [1, 8]: b (b = borderline response (00/background ?2.5-2.9).) | immunoreactivity of serum with GAD65 peptide [1, 6]: b (b = borderline response (00/background ?2.5-2.9).) | immunoreactivity of serum with GAD65 peptide ([1]; Pre-IDDM serum R.S. (2), 1/300 dilution): b (b = borderline response (00/background ?2.5-2.9).)

EYGTTTMVSYQPLGDKVNFFR [Peptide 36]
immunoreactivity of serum with GAD65 peptide [1, 7]: X (X = positive for immunoreactivity as defined by 00/background^3.0) | number of IDDM (at risk, pre-IDDM, at onset) patients positive (X) for the peptide (unlabelled sum line) [1]: 1

QNCNQMHASYLFQQDKHYDL [Peptide 28]
immunoreactivity of serum with GAD65 peptide [1, 3]: b (b = borderline response (00/background ?2.5-2.9).)

CGRHVDVFKLWLMWRAKGTTG [Peptide 30]
immunoreactivity of serum with GAD65 peptide ([1]; control serum 5620, 1/300 dilution): b (b = borderline response (00/background ?2.5-2.9).)

GSGDSENPGTARAWCQVAQKFTG [Peptide 2]
immunoreactivity of serum with GAD65 peptide [1, 9]: b (b = borderline response (00/background ?2.5-2.9).) | immunoreactivity of serum with GAD65 peptide [1, 3]: b (b = borderline response (00/background ?2.5-2.9).)

ATHQDIDFLIEEIERLGQDL [Peptide 38]
immunoreactivity of serum with GAD65 peptide [1, 4]: X (X = positive for immunoreactivity as defined by 00/background^3.0) | immunoreactivity of serum with GAD65 peptide [1, 9]: b (b = borderline response (00/background ?2.5-2.9).) | immunoreactivity of serum with GAD65 peptide [1, 3]: b (b = borderline response (00/background ?2.5-2.9).) | number of IDDM (at risk, pre-IDDM, at onset) patients positive (X) for the peptide (unlabelled sum line) [1]: 1

KHYDLSYDTGDKALQCGRHV [Peptide 29]
immunoreactivity of serum with GAD65 peptide [1, 4]: X (X = positive for immunoreactivity as defined by 00/background^3.0) | immunoreactivity of serum with GAD65 peptide [1, 7]: X (X = positive for immunoreactivity as defined by 00/background^3.0) | immunoreactivity of serum with GAD65 peptide [1, 3]: X (X = positive for immunoreactivity as defined by 00/background^3.0) | number of IDDM (at risk, pre-IDDM, at onset) patients positive (X) for the peptide (unlabelled sum line) [1]: 4 | immunoreactivity of serum with GAD65 peptide [1, 8]: b (b = borderline response (00/background ?2.5-2.9).) | immunoreactivity of serum with GAD65 peptide [1, 10]: X (X = positive for immunoreactivity as defined by 00/background^3.0) | immunoreactivity of serum with GAD65 peptide [1, 6]: X (X = positive for immunoreactivity as defined by 00/background^3.0)

KGTTGFEAHVDKCLELAEYLYN [Peptide 31]
immunoreactivity of serum with GAD65 peptide [1, 3]: b (b = borderline response (00/background ?2.5-2.9).) | immunoreactivity of serum with GAD65 peptide [1, 10]: b (b = borderline response (00/background ?2.5-2.9).) | immunoreactivity of serum with GAD65 peptide [1, 6]: b (b = borderline response (00/background ?2.5-2.9).)

DMVGLAADWLTSTANTNMFT [Peptide 13]
immunoreactivity of serum with GAD65 peptide [1, 3]: b (b = borderline response (00/background ?2.5-2.9).)

B1: GAD67: rat GAD67 expressed in bacteria, ^35S-labeled, in bacterial lysate (protein)
chain: MASSTPSPATSSNAGADPNTTNLRPTTYDTWCGVAHGCTRKLGLKICGFLQRTNSLEEKSRLVSAFRERQASKNLLSCENSDPGARFRRTETDFSNLFAQDLLPAKNGEEQTVQFLLEVVDILLNYVRKTFDRSTKVLDFHHPHQLLEGMEGFNLELSDHPESLEQILVDCRDTLKYGVRTGHPRFFNQLSTGLDIIGLAGEWLTSTANTNMFTYEIAPVFVLMEQITLKKMREIIGWSNKDGDGIFSPGGAISNMYSIMAARYKYFPEVKTKGMAAVPKLVLFTSEHSHYSIKKAGAALGFGTDNVILIKCNERGKIIPADLEAKILDAKQKGFVPLYVNATAGTTVYGAFDPIQEIADICEKYNLWLHVDAAWGGGLLMSRKHRHKLSGIERANSVTWNPHKMMGVLLQCSAILVKEKGILQGCNQMCAGYLFQPDKQYDVSYDTGDKAIQCGRHVDIFKFWLMWKAKGTVGFENQINKCLELAEYLYAKIKNREEFEMVFNGEPEHTNVCFWYIPQSLRGVPDSPERREKLHRVAPKIKALMMESGTTMVGYQPQGDKANFFRMVISNPAATQSDIDFLIEEIERLGQDL
band intensity of immunoprecipitated ^35S-GAD ([2]; serum of patient eight, drawn 8 months before IDDM onset): 0 | band intensity of immunoprecipitated ^35S-GAD ([2]; serum of patient eleven, drawn 10 months before IDDM onset): 1 | band intensity of immunoprecipitated ^35S-GAD ([2]; serum of patient five, drawn 34 months before IDDM onset): 0 | band intensity of immunoprecipitated ^35S-GAD ([2]; serum of patient nine, drawn 42 months before IDDM onset): 0 | band intensity of immunoprecipitated ^35S-GAD ([2]; serum of patient one, drawn 9 months before IDDM onset): 1 | band intensity of immunoprecipitated ^35S-GAD ([2]; serum of patient seven, drawn 3 months before IDDM onset): 1 | band intensity of immunoprecipitated ^35S-GAD ([2]; serum of patient six, drawn 11 months before IDDM onset): 1 | band intensity of immunoprecipitated ^35S-GAD ([2]; serum of patient ten, drawn 25 months before IDDM onset): 1 | band intensity of immunoprecipitated ^35S-GAD ([2]; serum of patient three, drawn 14 months before IDDM onset): 0 | band intensity of immunoprecipitated ^35S-GAD ([2]; serum of patient twelve, drawn 4 months before IDDM onset): 0 | band intensity of immunoprecipitated ^35S-GAD ([2]; serum of patient two, drawn 6 months before IDDM onset): 2 | band intensity of immunoprecipitated ^35S-GAD ([2]; serum of patient, drawn 66 months before IDDM onset): 0
